Laboratory results reported in US20170334899A1, “AMINO-SUBSTITUTED ISOTHIAZOLES” (Bayer Pharma Aktiengesellschaft, priority 2014, published 2017).

Assays:
[1] = tested on: human cervical tumor cell line HeLa (ATCC CCL-2); test: SAC-Formation - Paclitaxel-Induced Assay; format: cell-based; conditions: Homo sapiens, HeLa, 24 h, HeLa cells, paclitaxel 0.05 μM, test range 0.005 μM-20 μM, read-out: IC50 [mol/l] SAC-Formation - Paclitaxel-Induced Assay
Summary of the method: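 HeLa cells incubated overnight at 37° C, then given paclitaxel (0.05 μM final) plus test compound (0.005–20 μM, 0.5% DMSO) together for 24 h at 37° C. Fixed cells stained for phospho-histone H3 Ser10 (mitotic cells) and Hoechst 33342 (cell count); imaging-derived mitotic index fitted by four-parameter Hill equation.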

HeLa = test: Proliferation assay (crystal violet), HeLa; format: cell-based; conditions: Homo sapiens, HeLa, 96 h, HeLa cells; 4 days incubation; crystal violet staining; read-out: IC50 inhibition of proliferation, HeLa
Summary of the method: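 Tumor cells seeded at 1000–5000 cells/well in medium with 10% FCS; after 24 h, compounds added at 0.001–10 μM (0.5% DMSO) for 4 days. Cells fixed with glutaraldehyde, stained with crystal violet, dye dissolved in acetic acid and read at 595 nm. IC50 from 4-parameter fit, normalized to zero-point plate and untreated cells.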

SMILES	IC50 [1] [nM]	IC50 (HeLa) [nM]
Cc1nsc(Nc2cnc(C(F)(F)F)cn2)c1C(=O)Nc1ccc(O[C@@H]2CN(CC(F)(F)F)C[C@@H]2F)nc1 [Example 410, N-(6-{[(3R,4S)-4-Fluoro-1-(2,2,2-trifluoroethyl)pyrrolidin-3-yl]oxy}pyridin-3-yl)-3-methyl-5-{[5-(trifluoromethyl)pyrazin-2-yl]amino}-1,2-thiazole-4-carboxamide]	42	170
Cc1nsc(Nc2cnc(C(F)(F)F)cn2)c1C(=O)Nc1ccc(OCCNC(=O)C(F)(F)F)nc1 [Example 425, 3-Methyl-N-(6-{2-[(trifluoroacetyl)amino]ethoxy}pyridin-3-yl)-5-{[5-(trifluoro-methyl)pyrazin-2-yl]amino}-1,2-thiazole-4-carboxamide]	350	1300
Cc1nsc(Nc2cnc(C(F)(F)F)cn2)c1C(=O)Nc1ccc(F)c(OCCCNC(=O)C(F)(F)F)c1 [Example 427, N-(4-Fluoro-3-{3-[(trifluoroacetyl)amino]propoxy}phenyl)-3-methyl-5-{[5-(trifluoro-methyl)pyrazin-2-yl]amino}-1,2-thiazole-4-carboxamide]	920	860
Cc1nsc(Nc2ccc(C#N)cn2)c1C(=O)Nc1ccc(OC2CCCNC2)nc1 (stereo not shown) [Example 37, 5-[(5-Cyanopyridin-2-yl)amino]-3-methyl-N-[6-(piperidin-3-yloxy)pyridin-3-yl]-1,2-thiazole-4-carboxamide]	5200	10000
Cc1nsc(Nc2cc(C#N)ccn2)c1C(=O)Nc1ccc(OCCCNCC(F)F)nc1 [Example 45, 5-[(4-Cyanopyridin-2-yl)amino]-N-(6-{3-[(2,2-difluoroethyl)amino]propoxy}pyridin-3-yl)-3-methyl-1,2-thiazole-4-carboxamide]	20000	10000

Further molecules by falling IC50 [1], results first:

IC50 [1] [nM]	IC50 (HeLa) [nM]	SMILES
13000	8100	Cc1nsc(Nc2ccc(C#N)cn2)c1C(=O)Nc1ccc(OC2CCCN(CCF)C2)nc1 (stereo not shown) [Example 38, 5-[(5-Cyanopyridin-2-yl)amino]-N-(6-{[1-(2-fluoroethyl)piperidin-3-yl]oxy}pyridin-3-yl)-3-methyl-1,2-thiazole-4-carboxamide]
3500	8000	Cc1nsc(Nc2cnc3ccccc3n2)c1C(=O)Nc1ccc(NCCN(C)C(=O)OC(C)(C)C)nc1 [Example 434, tert-Butyl methyl(2-{[5-({[3-methyl-5-(quinoxalin-2-ylamino)-1,2-thiazol-4-yl]carbonyl}amino)pyridin-2-yl]amino}ethyl)carbamate]
1200	> 10000	Cc1nsc(Nc2cnc3ccccc3n2)c1C(=O)Nc1cccc(NC(=O)C(F)(F)F)c1 [Example 432, 3-Methyl-5-(quinoxalin-2-ylamino)-N-{3-[(trifluoroacetyl)amino]phenyl}-1,2-thiazole-4-carboxamide]
190	380	CCCN1CCC(COc2ccc(NC(=O)c3c(C)nsc3Nc3cnc(C(F)(F)F)cn3)cn2)C(F)(F)C1 (stereo not shown) [Example 394, N-{6-[(3,3-difluoro-1-propylpiperidin-4-yl)methoxy]pyridin-3-yl}-3-methyl-5-{[5-(trifluoromethyl)pyrazin-2-yl]amino}-1,2-thiazole-4-carboxamide]
130	760	Cc1nsc(Nc2cnc(C(F)(F)F)cn2)c1C(=O)Nc1ccc(F)c(OC[C@H]2CCCN(CC(F)(F)F)C2)c1 [Example 419, N-(4-Fluoro-3-{[(3S)-1-(2,2,2-trifluoroethyl)piperidin-3-yl]methoxy}phenyl)-3-methyl-5-{[5-(trifluoromethyl)pyrazin-2-yl]amino}-1,2-thiazole-4-carboxamide]
110	560	Cc1nsc(Nc2cnc(C(F)(F)F)cn2)c1C(=O)Nc1ccc(OC2CCN(C(=O)OC(C)(C)C)CC2)nc1 [Example 5, tert-Butyl 4-[(5-{[(3-methyl-5-{[5-(trifluoromethyl)pyrazin-2-yl]amino}-1,2-thiazol-4-yl)carbonyl]amino}pyridin-2-yl)oxy]piperidine-1-carboxylate]
